Patent publication US8143409B2, “Crystalline form of rabeprazole sodium” (Dipharma Francis S.R.L., priority 2006, dated 2012)

How the values were obtained:
[1] = Stability of the crystalline hydrate form at room temperature; format: physicochemical; details: compared with hydrated crystalline forms alpha and beta
[2] = Thermodynamic stability by comparing DSC thermograms; format: physicochemical; details: compared with known hydrate forms α and β, by comparing the respective DSC thermograms
Procedure: DSC thermograms were recorded with a Mettler-Toledo differential scansion calorimeter DSC 822, under the following operative conditions: aluminium capsules, 30-400° C. range with increase of 10° C./min, under nitrogen as purging gas (80 ml/min).

[3] = isomorphic forms of EP 1674463; makes handling and storing easy; cited from earlier work

**Q.** For `COCCCOc1ccnc(C[S+]([O-])c2nc3ccccc3[n-]2)c1C.[Na+]` (stereo not drawn) [Form γ, 2-[[[4-(3-methoxypropoxy)-3-methyl-2-pyridinyl]-methyl]sulfinyl]-1H-benzylimidazole sodium salt], which stability [1] is on record?
**A.** Its stability is “more stable at room temperature”.

**Q.** And the thermodynamic stability [2]?
**A.** The thermodynamic stability was “thermodynamically more stable than the known hydrate forms α and β”.

**Q.** With `COCCCOc1ccnc(C[S+]([O-])c2nc3ccccc3[n-]2)c1C.[Na+]` (stereo not drawn) [alpha] as the compound, how does the hygroscopicity [3] read?
**A.** The hygroscopicity was “low hygroscopicity”.
